Key:
VEGFR2 (KDR) = biological target: T1, VEGFR2 (KDR) (Homo sapiens, UniProt P35968); experiment: In Vitro Receptor Tyrosine Kinase Assay (VEGF receptor KDR), DELFIA; format: biochemical; settings: recombinant GST-VEGFR2 806-1356, enzyme 5 nM, ATP 0.6 uM (2x Km), poly(Glu4,Tyr) substrate; read-out: VEGFR_IC50_UM
T1 construct: made in house; host or cells: Sf9 cells (Spodoptera frugiperda), recombinant baculovirus
Text: This test measures the ability of compounds to inhibit the enzymatic activity of recombinant human VEGF receptor enzymatic activity.
A 1.6-kb cDNA corresponding to the catalytic domain of VEGFR2 (KDR) (Genbank accession number AF035121 amino acid 806 to 1356) is cloned into the Pst I site of the pDEST20 Gateway vector (Invitrogen) for the production of a GST-tagged version of that enzyme. This construct is used to generate recombinant baculovirus using the Bac-to-Bac™ system according to the manufacturer's instructions (Invitrogen).
The GST-VEGFR2806-1356 protein is expressed in Sf9 cells (Spodoptera frugiperda) upon infection with recombinant baculovirus construct. Briefly, Sf9 cells grown in suspension and maintained in serum-free medium (Sf900 II supplemented with gentamycin) at a cell density of about 2×10^6 cells/ml are infected with the above-mentioned viruses at a multiplicity of infection (MOI) of 0.1 during 72 hours at 27° C. with agitation at 120 rpm on a rotary shaker. Infected cells are harvested by centrifugation at 398 g for 15 min. Cell pellets are frozen at −80° C. until purification is performed.
All steps described in cell extraction and purification are performed at 4° C. Frozen Sf9 cell pellets infected with the GST-VEGFR2806-1356 recombinant baculovirus are thawed and gently resuspended in Buffer A (PBS pH 7.3 supplemented with 1 μg/ml pepstatin, 2 μg/ml Aprotinin and leupeptin, 50 μg/ml PMSF, 50 μg/ml TLCK and 10 μM E64 and 0.5 mM DTT) using 3 ml of buffer per gram of cells. Suspension is Dounce homogenized and 1% Triton X-100 is added to the homogenate after which it is centrifuged at 22500 g, 30 min., 4° C. The supernatant (cell extract) is used as starting material for purification of GST-VEGFR2806-1356.
The supernatant is loaded onto a GST-agarose column (Sigma) equilibrated with PBS pH 7.3. Following a four column volume (CV) wash with PBS pH 7.3+1% Triton X-100 and 4 CV wash with buffer B (50 mM Tris pH 8.0, 20% glycerol and 100 mM NaCl), bound proteins are step eluted with 5 CV of buffer B supplemented with 5 mM DTT and 15 mM glutathion. GST-VEGFR2806-1356 enriched fractions from this chromatography step are pooled based on U.V. trace i.e. fractions with high O.D.280. Final GST-VEGFR2806-1356 protein preparations concentrations are about 0.7 mg/ml with purity approximating 70%. Purified GST-VEGFR2806-1356 protein stocks are aliquoted and frozen at −80° C. prior to use in enzymatic assay.
Inhibition of VEGFR/KDR is measured in a DELFIA™ assay (Perkin Elmer). The substrate poly(Glu4, Tyr) is immobilized onto black high-binding polystyrene 96-well plates. The coated plates are washed and stored at 4° C. During the assay, the enzyme is pre-incubated with inhibitor and Mg-ATP on ice in polypropylene 96-well plates for 4 minutes, and then transferred to the coated plates. The subsequent kinase reaction takes place at 30° C. for 10-30 minutes. ATP concentrations in the assay are 0.6 uM for VEGFR/KDR (2× the Km). Enzyme concentration is 5 nM. After incubation, the kinase reactions are quenched with EDTA and the plates are washed. Phosphorylated product is detected by incubation with Europium-labeled anti-phosphotyrosine MoAb. After washing the plates, bound MoAb is detected by time-resolved fluorescence in a Gemini SpectraMax reader (Molecular Devices). Compounds are evaluated over a range of concentrations, and IC50 values (concentration of compounds giving 50% inhibition of enzymatic activity) are determined.

[1] = system: VEGF-dependent phospho ERK1/2 (T202/Y204) in HUVEC cells; experiment: VEGF-Dependent Erk Phosphorylation in HUVEC cells; format: cell-based; settings: Homo sapiens, 1.5 h compound exposure, VEGF165 150 ng/ml, Western blot densitometry, read-out: P_ERK_IC50_UM
Text: HUVEC cells are purchased from Cambrex Bio Science Walkersville, Inc and cultured according to the vendor's instructions. The full-length coding sequence of VEGF165 is cloned using the Gateway Cloning Technology (Invitrogen) for baculovirus expression Sf9 cells. VEGF165 is purified from conditioned media using a NaCl gradient elution from a HiTrap heparin column (GE Healthcare Life Sciences) followed by an imidazole gradient elution from a HiTrap chelating column (GE Healthcare Life Sciences), then buffer stored in PBS supplemented with 0.1% BSA and filter sterilized
Cells are seeded at 8000 cells/well of a 96 wells plate and grown for 48 hours. Cells are then grown overnight in serum and growth factor-free medium and exposed for 1.5 h to compounds dilutions. Following a 15 min incubation in medium, VEGF165 (150 ng/ml) cells are lysed in ice-cold lysis buffer (50 mM HEPES, pH 7.4, 150 mM NaCl, 1.5 mM MgCl2, 1% Triton X-100, 10% glycerol) containing 1 mM 4-(2 aminoethyl)benzenesulfonyl fluoride hydrochloride, 200 μM sodium orthovanadate, 1 mM sodium fluoride, 10 μg/mL leupeptin, 10 μg/mL aprotinin, 1 μg/mL pepstatin and 50 μg/mL Na-p-tosyl-L-lysine chloromethyl ketone hydrochloride and processed as Western blots to detect anti-phospho ERK1/2 (T202/Y204)(Cell Signaling Technologies). […]

T1 sequence (P35968 806-1356): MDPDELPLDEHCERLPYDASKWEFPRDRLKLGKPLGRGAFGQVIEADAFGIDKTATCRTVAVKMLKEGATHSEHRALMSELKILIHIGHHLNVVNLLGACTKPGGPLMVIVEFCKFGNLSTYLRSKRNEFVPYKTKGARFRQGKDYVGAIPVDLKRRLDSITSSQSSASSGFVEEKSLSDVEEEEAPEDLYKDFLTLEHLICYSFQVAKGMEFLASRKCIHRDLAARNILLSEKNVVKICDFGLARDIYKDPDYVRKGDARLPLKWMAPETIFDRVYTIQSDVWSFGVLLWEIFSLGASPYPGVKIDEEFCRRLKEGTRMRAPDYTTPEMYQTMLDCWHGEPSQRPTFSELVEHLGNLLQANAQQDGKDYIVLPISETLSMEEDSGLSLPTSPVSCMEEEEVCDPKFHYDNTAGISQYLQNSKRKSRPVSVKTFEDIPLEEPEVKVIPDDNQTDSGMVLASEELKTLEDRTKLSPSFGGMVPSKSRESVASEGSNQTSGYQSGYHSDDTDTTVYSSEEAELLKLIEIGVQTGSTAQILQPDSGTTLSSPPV

SMILES	IC50 (VEGFR2 (KDR))	IC50 [1]
O=C1CCCN1Cc1ccc(-c2cc3nccc(Oc4ccc5oc(NC6CC6)nc5c4)c3s2)nc1 [Compound 47]	1560 nM	120 nM
O=C(CO)NC1CCN(Cc2ccc(-c3cc4nccc(Oc5ccc6oc(Nc7ccc(Cl)cc7)nc6c5)c4s3)nc2)CC1 [Compound 12, N-(1-((6-(7-(2-(4-Chlorophenylamino)benzo[d]oxazol-5-yloxy)thieno[3,2-b]pyridin-2-yl)pyridin-3-yl)methyl)piperidin-4-yl)-2-hydroxyacetamide]	6 nM	–
Clc1ccc(Nc2nc3cc(Oc4ccnc5cc(-c6ccc(CNc7cccc(OCCN8CCOCC8)c7)cn6)sc45)ccc3o2)cc1 [Compound 19]	12 nM	–
O=C1CCCN1Cc1ccc(-c2cc3nccc(Oc4ccc5oc(Nc6ccc(Cl)cc6)nc5c4)c3s2)nc1 [Compound 46, 1-((6-(7-(2-(4-Chlorophenylamino)benzo[d]oxazol-5-yloxy)thieno[3,2-b]pyridin-2-yl)pyridin-3-yl)methyl)pyrrolidin-2-one]	5 nM	–
Clc1ccc(Nc2nc3cc(Oc4ccnc5cc(-c6ccc(CNc7cc[nH]n7)cn6)sc45)ccc3o2)cc1 [Compound 17]	41.3 nM	–
CCNC(=O)N(C)C1CCN(Cc2ccc(-c3cc4nccc(Oc5ccc6oc(Nc7ccc(Cl)cc7)nc6c5)c4s3)nc2)CC1 [Compound 15]	7 nM	–
O=C1CCCN1Cc1ccc(-c2cc3nccc(Oc4ccc5oc(Nc6cccc(Cl)c6)nc5c4)c3s2)nc1 [Compound 49]	2 nM	–
CN(C(=O)CO)C1CCN(Cc2ccc(-c3cc4nccc(Oc5ccc6oc(Nc7ccc(Cl)cc7)nc6c5)c4s3)nc2)CC1 [Compound 14]	5 nM	–
CCNC(=O)NC1CCN(Cc2ccc(-c3cc4nccc(Oc5ccc6oc(Nc7ccc(Cl)cc7)nc6c5)c4s3)nc2)CC1 [Compound 13]	7 nM	–
CCn1cc(CN(Cc2ccc(-c3cc4nccc(Oc5ccc6oc(Nc7ccc(Cl)cc7)nc6c5)c4s3)nc2)C(C)C)nn1 [Compound 21, N-(4-Chlorophenyl)-5-(2-(5-((((1-ethyl-1H-1,2,3-triazol-4-yl)methyl)(isopropyl)amino)methyl)pyridin-2-yl)thieno[3,2-b]pyridin-7-yloxy)benzo[d]oxazol-2-amine]	8 nM	–
Clc1ccc(Nc2nc3cc(Oc4ccnc5cc(-c6ccc(CNc7ccc(OCCN8CCOCC8)cc7)cn6)sc45)ccc3o2)cc1 [Compound 18]	23 nM	–
CCN(CC)CCNC(=O)c1ccc(NCc2ccc(-c3cc4nccc(Oc5ccc6oc(Nc7ccc(Cl)cc7)nc6c5)c4s3)nc2)cc1 [Compound 16, 4-((6-(7-(2-(4-Chlorophenylamino)benzo[d]oxazol-5-yloxy)thieno[3,2-b]pyridin-2-yl)pyridin-3-yl)methyl)amino-N-(2-(diethylamino)ethyl)benzamide]	16 nM	–

Continued, in another order:

IC50 (VEGFR2 (KDR))	SMILES	IC50 [1]
18 nM	O=C1CCCN1Cc1ccc(-c2cc3nccc(Oc4ccc5oc(Nc6ccc(Cl)c(C(F)(F)F)c6)nc5c4)c3s2)nc1 [Compound 57]	–
139 nM	O=C1CCCN1Cc1ccc(-c2cc3nccc(Oc4ccc5oc(Nc6ccccc6Cl)nc5c4)c3s2)nc1 [Compound 54]	–
14 nM	O=C1CCCN1Cc1ccc(-c2cc3nccc(Oc4ccc5oc(Nc6ccc(F)cc6)nc5c4)c3s2)nc1 [Compound 55]	–
4 nM	COCCN(Cc1ccc(-c2cc3nccc(Oc4ccc5oc(Nc6ccc(Cl)cc6)nc5c4)c3s2)nc1)C(C)=O [Compound 62]	–
19 nM	CN(C)[C@H]1CCN(C(=O)c2cc3nccc(Oc4ccc5oc(Nc6ccccc6)nc5c4)c3s2)C1 [Compound 61]	–
29 nM	O=C1CCCN1Cc1ccc(-c2cc3nccc(Oc4ccc5oc(Nc6cccc(F)c6)nc5c4)c3s2)nc1 [Compound 56]	–
3 nM	COc1ccc(Nc2nc3cc(Oc4ccnc5cc(-c6ccc(CN7CCCC7=O)cn6)sc45)ccc3o2)cc1 [Compound 53]	–
6 nM	O=C1CCCN1Cc1ccc(-c2cc3nccc(Oc4ccc5oc(Nc6ccc(C(F)(F)F)cc6)nc5c4)c3s2)nc1 [Compound 52]	–
1580 nM	COCCN(Cc1ccc(-c2cc3nccc(Oc4ccc5oc(NC6CC6)nc5c4)c3s2)nc1)C(C)=O [Compound 63]	–
240 nM	O=C(c1cc2nccc(Oc3ccc4oc(Nc5ccccc5)nc4c3)c2s1)N1CCCCC1 [Compound 59]	–
47 nM	COCCN(Cc1ccc(-c2cc3nccc(Oc4ccc5oc(Nc6ccccc6)nc5c4)c3s2)nc1)C(C)=O [Compound 64]	–
232 nM	CC(C)(C)OC(=O)N1CCN(Cc2ccc(-c3cc4nccc(Oc5ccc6oc(Nc7ccc(Cl)cc7)nc6c5)c4s3)nc2)CC1 [Compound 65]	–
278 nM	O=C1CCCN1Cc1ccc(-c2cc3nccc(Oc4ccc5nc(Nc6ccc(Cl)cc6)oc5c4)c3s2)nc1 [Compound 51]	–
434 nM	O=C1CCCN1Cc1ccc(-c2cc3nccc(Oc4ccc5nc(Nc6cccc(Cl)c6)oc5c4)c3s2)nc1 [Compound 50]	–
